Marks after values point to notes of the source that are not given here.
How the values were obtained:
Format in all cases: in vivo
Settings in all cases: 100 = 100% disease control
[1] = system: Alternaria solani; test: Test D: tomato early blight, sprayed the day before inoculation, visual disease rating
Procedure, shortened: (§1)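 Compounds were dissolved in acetone (3% of final volume), then suspended in 50/50 acetone/water with 250 ppm Trem 014 surfactant and sprayed to run-off on test plants. A 200 ppm suspension equals 500 g/ha. Ratings are at 200 ppm unless flagged as 40 ppm.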

[2] = system: Erysiphe graminis f. sp. tritici; test: Test J: wheat powdery mildew on wheat seedlings, sprayed the day before inoculation, visual disease rating
Procedure, shortened: as §1

[3] = system: Puccinia recondita f. sp. tritici; test: Test I: wheat leaf rust on wheat seedlings, sprayed the day before inoculation, visual disease rating
Procedure, shortened: as §1

[4] = system: Septoria tritici; test: Test G: wheat leaf blotch on wheat seedlings, sprayed the day before inoculation, visual disease rating
Procedure, shortened: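 Compounds dissolved in acetone (3% of final volume), then suspended in 50/50 acetone/water with 250 ppm Trem® 014 and sprayed to run-off on seedlings at 200 ppm (≈500 g/ha) or 40 ppm where marked. Inoculation with spores followed next day; visual rating after 48 h saturated at 24° C plus 19 days at 20° C.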

[5] = system: Botrytis cinerea; test: Test C: tomato Botrytis on tomato seedlings, sprayed the day before inoculation, visual disease rating
Procedure, shortened: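 Tomato seedlings sprayed to run-off with compound suspended in acetone/water with 250 ppm Trem 014 surfactant, at 200 ppm (≈500 g/ha) or 40 ppm where marked, one day before Botrytis cinerea inoculation. Disease rated visually.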

[6] = system: Septoria nodorum; test: Test F: wheat glume blotch on wheat seedlings, sprayed the day before inoculation, visual disease rating
Procedure, shortened: as §1

[7] = 200 ppm, 0 = no control relative to controls
[8] = 40 ppm (marked *), 0 = no control

Cc1nc(Cl)c(-c2c(F)cccc2F)n1-c1ccc(OC(F)(F)F)cc1 [compound 81]
Test D disease control rating [1, 7]: 100% | Test J disease control rating [2, 7]: 100% | Test I disease control rating [3, 7]: 98% | Test G disease control rating [4, 7]: 93% | Test C disease control rating [5, 7]: 81% | Test F disease control rating [6, 7]: 69%

COc1cc(Cl)cc(F)c1-c1c(Cl)nc(C)n1-c1ccc(Cl)cc1 [compound 149]
Test D disease control rating ([1]; 200 ppm, 0 = no control): 0% | Test J disease control rating ([2]; 200 ppm, 0 = no control): 95% | Test I disease control rating ([3]; 200 ppm, 0 = no control): 95% | Test G disease control rating ([4]; 200 ppm, 0 = no control): 96% | Test C disease control rating ([5]; 200 ppm, 0 = no control): 53% | Test F disease control rating ([6]; 200 ppm, 0 = no control): 98%

Cc1nn(C)c(-c2c(F)cccc2F)c1-c1cccc(F)c1 [Compound 60, 5-(2,6-difluorophenyl)-4-(3-fluorophenyl)-1,3-dimethyl-1H-pyrazole]
pest or weed control at 200 ppm ([1]; Alternaria solani, 168 h, 200 ppm, 0 = no control relative to controls): 0% | pest or weed control at 200 ppm ([2]; Blumeria graminis, 168 h, 200 ppm, 0 = no control relative to controls): 0% | pest or weed control at 200 ppm ([3]; Puccinia recondita, 168 h, 200 ppm, 0 = no control relative to controls): 0% | pest or weed control at 200 ppm ([4]; Zymoseptoria tritici, 504 h, 200 ppm, 0 = no control relative to controls): 2% | pest or weed control at 200 ppm ([5]; Botrytis cinerea, 120 h, 200 ppm, 0 = no control relative to controls): 81% | pest or weed control at 200 ppm ([6]; Parastagonospora nodorum, 264 h, 200 ppm, 0 = no control relative to controls): 0%

Fc1cc(F)c(-n2cnc(Br)c2-c2ccc(Cl)cc2)c(F)c1 [compound 212]
Test D disease control rating [1, 8]: 20* % | Test J disease control rating [2, 8]: 0* % | Test I disease control rating [3, 8]: 0* % | Test G disease control rating [4, 8]: 0* % | Test C disease control rating [5, 8]: 40* % | Test F disease control rating [6, 8]: 0* %

Fc1ccc(F)c(-c2c(Cl)nc(Br)n2-c2ccc(Cl)c(Cl)c2)c1F [compound 440]
Test D disease control rating [1, 7]: 100% | Test J disease control rating [2, 7]: 99% | Test I disease control rating [3, 7]: 98% | Test G disease control rating [4, 7]: 95% | Test C disease control rating [5, 7]: 99% | Test F disease control rating [6, 7]: 98%

Fc1cccc(F)c1-c1c(Cl)nc(Br)n1-c1ccc(C(F)(F)F)cc1 [compound 84]
Test D disease control rating [1, 7]: 99% | Test J disease control rating [2, 7]: 99% | Test I disease control rating [3, 7]: 91% | Test G disease control rating [4, 7]: 88% | Test C disease control rating [5, 7]: 0% | Test F disease control rating [6, 7]: 0%

Fc1cccc(F)c1-n1c(Br)nc(Cl)c1-c1ccc(Cl)cc1 [compound 164]
Test D disease control rating [1, 8]: 88* % | Test J disease control rating [2, 8]: 94* % | Test I disease control rating [3, 8]: 19* % | Test G disease control rating [4, 8]: 96* % | Test C disease control rating [5, 8]: 91* % | Test F disease control rating [6, 8]: 0* %

Cc1ccc(-n2c(C)nc(Cl)c2-c2c(F)cccc2Cl)cc1 [compound 190]
Test D disease control rating ([1]; 200 ppm, 0 = no control): 100% | Test J disease control rating ([2]; 200 ppm, 0 = no control): 100% | Test I disease control rating ([3]; 200 ppm, 0 = no control): 100% | Test G disease control rating ([4]; 200 ppm, 0 = no control): 93% | Test C disease control rating ([5]; 200 ppm, 0 = no control): 97% | Test F disease control rating ([6]; 200 ppm, 0 = no control): 0%

Cc1nc(Cl)c(-c2c(F)cccc2F)n1-c1cc(F)cc(F)c1 [compound 73]
Test D disease control rating [1, 7]: 100% | Test J disease control rating [2, 7]: 100% | Test I disease control rating [3, 7]: 100% | Test G disease control rating [4, 7]: 87% | Test C disease control rating [5, 7]: 100% | Test F disease control rating [6, 7]: 60%

Fc1ccc(-n2c(Br)nc(Cl)c2-c2ccc(F)cc2Cl)cc1 [compound 182]
Test D disease control rating ([1]; 200 ppm, 0 = no control): 100% | Test J disease control rating ([2]; 200 ppm, 0 = no control): 99% | Test I disease control rating ([3]; 200 ppm, 0 = no control): 97% | Test G disease control rating ([4]; 200 ppm, 0 = no control): 96% | Test C disease control rating ([5]; 200 ppm, 0 = no control): 99% | Test F disease control rating ([6]; 200 ppm, 0 = no control): 73%

COc1cc(F)c(-c2c(C)nc(C)n2-c2ccc(Cl)cc2)c(F)c1 [compound 55]
Test D disease control rating ([1]; 40 ppm (marked *)): 100* % | Test J disease control rating ([2]; 40 ppm (marked *)): 100* % | Test I disease control rating ([3]; 40 ppm (marked *)): 99* % | Test G disease control rating ([4]; 40 ppm (marked *)): 93* % | Test C disease control rating ([5]; 40 ppm (marked *)): 94* % | Test F disease control rating ([6]; 40 ppm (marked *)): 98* %

Fc1ccc(-n2c(Br)nc(Cl)c2-c2c(F)ccc(F)c2F)cc1 [compound 134]
Test D disease control rating [1, 7]: 100% | Test J disease control rating [2, 7]: 100% | Test I disease control rating [3, 7]: 99% | Test G disease control rating [4, 7]: 93% | Test C disease control rating [5, 7]: 97% | Test F disease control rating [6, 7]: 99%

Fc1ccc(F)c(-c2c(Cl)nc(Br)n2-c2ccc(Cl)cc2)c1F [compound 50]
Test D disease control rating [1, 7]: 100% | Test J disease control rating [2, 7]: 100% | Test I disease control rating [3, 7]: 100% | Test G disease control rating [4, 7]: 92% | Test C disease control rating [5, 7]: 98% | Test F disease control rating [6, 7]: 100%

Reference: patent US20110045101A1, “FUNGICIDAL SUBSTITUTED AZOLES” (E.I. Du Pont De Nemours and Company, priority 2009, published 2011)
